# Data as given in patent publication US11208400B2, “Substituted 6-(1H-pyrazol-1-yl)pyrimidin-4-amine derivatives and uses thereof” (Bayer Aktiengesellschaft, priority 2016, dated 2021).
# Biological target: T1, human Npt2a (Homo sapiens, UniProt Q06495)
# T1 construct: expressed in transfected cells
# T1 sequence (Q06495 1-639): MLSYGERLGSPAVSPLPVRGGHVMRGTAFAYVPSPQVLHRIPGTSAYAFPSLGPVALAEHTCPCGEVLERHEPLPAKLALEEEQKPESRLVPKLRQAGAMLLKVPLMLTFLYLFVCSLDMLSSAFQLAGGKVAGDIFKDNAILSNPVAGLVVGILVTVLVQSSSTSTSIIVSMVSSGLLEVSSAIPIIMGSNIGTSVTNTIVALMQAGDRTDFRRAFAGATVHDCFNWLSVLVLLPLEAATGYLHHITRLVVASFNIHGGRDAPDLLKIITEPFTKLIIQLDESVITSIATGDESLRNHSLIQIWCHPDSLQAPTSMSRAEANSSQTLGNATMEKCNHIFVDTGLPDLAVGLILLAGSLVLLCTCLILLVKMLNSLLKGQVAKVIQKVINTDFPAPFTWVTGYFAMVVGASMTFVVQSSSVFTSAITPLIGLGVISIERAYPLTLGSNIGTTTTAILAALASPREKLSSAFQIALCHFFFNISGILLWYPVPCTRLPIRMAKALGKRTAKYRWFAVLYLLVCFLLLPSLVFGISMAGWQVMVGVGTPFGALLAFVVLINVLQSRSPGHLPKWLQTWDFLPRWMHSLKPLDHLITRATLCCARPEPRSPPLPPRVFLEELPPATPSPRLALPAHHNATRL
# Assay: Npt2a activity cell based assay, membrane potential dye, CHO T-REx hNpt2a cells
# Details: doxycycline-induced, depolarization by sodium phosphate influx, average or median values if tested more than once
# Method: For measuring Npt2a activity in a cell based assay, a stable CHO cell line with inducible Npt2a expression was generated. Therefore, CHO T-Rex cells (life technologies cat. R718-07) were stably transfected with doxycycline-inducible human NPT2a (pcDNA5TO-hNpt2a). The obtained CHO T-REx hNpt2a cells were routinely cultured in Dulbecco's MEM/F12 (4.5 g/l Glucose, Gibco cat. 21331-020; 500 mL) supplemented with 10 ml Glutamax 100×, Sodium pyruvate (7 mL of 100 mM solution), HEPES (10 mL of 1 M solution), Sodium bicarbonate (10 mL of 7.5% solution), 10% Fetal Bovine Serum Tetracycline free (Clontech cat. 631106, 500 ml), Penicillin-Streptomycin (5 mL of 100× Solution), Blasticidin 10 μg/mL and 400 μg/mL Hygromycin.
# Activity of Npt2a was detected by following depolarization of cellular membrane potential by influx of sodium phosphate using fluorescent membrane potential dye kit BLUE (Molecular devices cat. R8034). For Npt2a activity measurements, CHO T-Rex hNpt2a cells were seeded into 1536 well microtiter plates (GREINER Bio-One cat. 782092) with 750 cells/well in 7 μL/w of complete medium (2% Tetracycline-free FBS, 2% Poly-D-Lysine) without selective agents+Doxycycline 0.5 μg/mL to induce Npt2a gene expression, and grown for 24 h at 37° C., 5% carbon dioxide.
# On the day of experiment a 1×MPdye Loading Solution was freshly prepared by re-suspending 15 mg of Blue MPdye powder in 10 mL of NHE buffer sodium-free (140 mM N-Methyl-D-glucamine, 5.4 mM KCl, 1 mM CaCl2, 11 mM D(±)-Glucose water free, 1.2 mM MgCl2, 10 mM HEPES; pH 7.4 (adjusted with hydrochloric acid); sterile filtered). 5 μl medium was removed from plates by robotic manipulation, then 5 μL/well of sodium-free NHE buffer was added. After incubation for 2 min, this washing step was repeated once. Then, 5 μL/w of buffer was removed from plates and cells were incubated for 5 min at room temperature with 5 μL/w of MPdye Loading Solution (1× in Sodium-free NHE Buffer). Test compounds were added to the cells at final test concentrations between 50 μM and 1 nM (0.6 μL/well, final DMSO 0.6%, prepared in MPDye Loading Solution) and incubated for 5 min at room temperature.
# Plates were analyzed with an in house CCD camera device using a λexc 510-545 nm/λem 565-625 nm filter. Fluorescence was detected for 15 sec (background measurement M1). Activity of Npt2a was triggered by addition of 2 μL/well of 30 mM Na+ and 1 mM phosphate (prepared in a mixture of NHE Buffer Na+ free and NHE Buffer 140 mM Na+). Fluorescence was followed for 2-3 min (depolarization measurement M2). Data was normalized to cell number and dye loading efficiency by calculating M2/M1. This quotient was plotted against test compound concentration. Graph Pad Prism or equivalent in house software was used to create sigmoidal dose-response curves (variable slope) and determine IC50 values.
row,SMILES,IC50 [nM]
1,"CCOC(=O)c1c(C)nn(-c2cc(Nc3n[nH]c(-c4ccccc4)c3Cl)ncn2)c1C [Example 51, ethyl 1-{6-[(4-chloro-5-phenyl-1H-pyrazol-3-yl)amino]pyrimidin-4-yl}-3,5-dimethyl-1H-pyrazole-4-carboxylate]",100
2,"Cc1nn(-c2cc(Nc3c(C)c(-c4ccc(F)cc4)nn3CC3CC3)ncn2)c(C)c1C1(O)CC1 [Example 244, 1-[1-(6-{[1-(cyclopropylmethyl)-3-(4-fluorophenyl)-4-methyl-1H-pyrazol-5-yl]amino}pyrimidin-4-yl)-3,5-dimethyl-1H-pyrazol-4-yl]cyclopropanol]",8
3,"Cc1cc(C)n(-c2cc(Nc3nn(C)c(-c4ccc(C(F)F)cc4)c3C)ncn2)n1 [Example 409, N-{5-[4-(difluoromethyl)phenyl]-1,4-dimethyl-1H-pyrazol-3-yl}-6-(3,5-dimethyl-1H-pyrazol-1-yl)pyrimidin-4-amine]",140
4,"Cc1nn(-c2cc(Nc3c(C)c(-c4ccc(C#N)cc4)nn3CC3CC3)ncn2)c(C)c1C(C)(O)C(F)(F)F (racemic) [Example 322, (±)-4-{1-(cyclopropylmethyl)-5-[(6-{3,5-dimethyl-4-[(2S)-1,1,1-trifluoro-2-hydroxypropan-2-yl]-1H-pyrazol-1-yl}pyrimidin-4-yl)amino]-4-methyl-1H-pyrazol-3-yl}benzonitrile (Racemate)]",4
5,"Cc1nn(-c2cc(Nc3nn(C)c(-c4ccc(F)cn4)c3C)ncn2)c(C)c1Cl [Example 479, 6-(4-chloro-3,5-dimethyl-1H-pyrazol-1-yl)-N-[5-(5-fluoropyridin-2-yl)-1,4-dimethyl-1H-pyrazol-3-yl]pyrimidin-4-amine]",18
6,"Cc1nn(-c2cc(Nc3c(C)c(-c4ccc(C#N)cc4)nn3CCC3CC3)ncn2)c(C)c1Cl [Example 221, 4-[5-{[6-(4-chloro-3,5-dimethyl-1H-pyrazol-1-yl)pyrimidin-4-yl]amino}-1-(2-cyclopropylethyl)-4-methyl-1H-pyrazol-3-yl]benzonitrile]",6
7,"COC(=O)Nc1c(C)nn(-c2cc(Nc3c(C)c(-c4ccc(F)cc4)nn3CC3CC3)ncn2)c1C [Example 556, methyl [1-(6-{[1-(cyclopropylmethyl)-3-(4-fluorophenyl)-4-methyl-1H-pyrazol-5-yl]amino}pyrimidin-4-yl)-3,5-dimethyl-1H-pyrazol-4-yl]carbamate]",810
8,"Cc1nn(-c2cc(Nc3nn(C)c(-c4ccccc4)c3Cl)ncn2)c(C)c1Cl [Example 53, 6-(4-chloro-3,5-dimethyl-1H-pyrazol-1-yl)-N-(4-chloro-1-methyl-5-phenyl-1H-pyrazol-3-yl)pyrimidin-4-amine]",11.3
9,"CCc1c(Nc2cc(-n3nc(C)c(C(=O)N4CCC(C(F)F)C4)c3C)ncn2)nn(C)c1-c1ccc(F)cc1 (stereo not drawn) [Example 128, [3-(difluoromethyl)pyrrolidin-1-yl][1-(6-{[4-ethyl-5-(4-fluorophenyl)-1-methyl-1H-pyrazol-3-yl]amino}pyrimidin-4-yl)-3,5-dimethyl-1H-pyrazol-4-yl]methanone]",1300
10,"Cc1c(-c2ccc(C#N)cc2)nn(CC2CC2)c1Nc1cc(-n2nc(C(C)C)cc2C)ncn1 [Example 286, 4-[1-(cyclopropylmethyl)-4-methyl-5-({6-[5-methyl-3-(propan-2-yl)-1H-pyrazol-1-yl]pyrimidin-4-yl}amino)-1H-pyrazol-3-yl]benzonitrile]",93
11,"Cc1nn(-c2cc(Nc3c(C)c(-c4ccc(F)cc4)nn3CC3CC3)ncn2)c(C)c1OC(=O)N(C)C [Example 520, 1-(6-{[1-(cyclopropylmethyl)-3-(4-fluorophenyl)-4-methyl-1H-pyrazol-5-yl]amino}pyrimidin-4-yl)-3,5-dimethyl-1H-pyrazol-4-yl dimethylcarbamate]",1600
12,"Cc1c(Nc2cc(-n3cc(C(F)(F)F)cn3)ncn2)nn(C)c1-c1ccc(F)cc1 [Example 424, N-[5-(4-fluorophenyl)-1,4-dimethyl-1H-pyrazol-3-yl]-6-[4-(trifluoromethyl)-1H-pyrazol-1-yl]pyrimidin-4-amine]",370
13,"Cc1cc(C)n(-c2cc(Nc3c(C)c(-c4ccc(OC(F)(F)F)cc4)nn3C)ncn2)n1 [Example 116, 6-(3,5-dimethyl-1H-pyrazol-1-yl)-N-{1,4-dimethyl-3-[4-(trifluoromethoxy)phenyl]-1H-pyrazol-5-yl}pyrimidin-4-amine]",92.5
14,"CCc1c(Nc2cc(-n3nc(C)c(C4(O)COC4)c3C)ncn2)nn(C)c1-c1ccc(F)cc1 [Example 220, 3-[1-(6-{[4-ethyl-5-(4-fluorophenyl)-1-methyl-1H-pyrazol-3-yl]amino}pyrimidin-4-yl)-3,5-dimethyl-1H-pyrazol-4-yl]oxetan-3-ol]",320
15,"Cc1nn(-c2cc(Nc3c(C)c(-c4ccc(C#N)cc4)nn3CC3CC3)ncn2)c(C(F)F)c1Cl [Example 154, 4-[5-({6-[4-chloro-5-(difluoromethyl)-3-methyl-1H-pyrazol-1-yl]pyrimidin-4-yl}amino)-1-(cyclopropylmethyl)-4-methyl-1H-pyrazol-3-yl]benzonitrile]",3
16,"COCCn1nc(-c2ccc(F)cc2)c(C)c1Nc1cc(-n2nc(C)cc2C(F)F)ncn1 [Example 527, 6-[5-(difluoromethyl)-3-methyl-1H-pyrazol-1-yl]-N-[3-(4-fluorophenyl)-1-(2-methoxyethyl)-4-methyl-1H-pyrazol-5-yl]pyrimidin-4-amine]",9
17,"Cc1cc(C)n(-c2cc(Nc3c(C)c(-c4ccc(C(F)(F)F)nc4)nn3C)ncn2)n1 [Example 549, 6-(3,5-dimethyl-H-pyrazol-1-yl)-N-{1,4-dimethyl-3-[6-(trifluoromethyl)pyridin-3-yl]-1H-pyrazol-5-yl}pyrimidin-4-amine]",2600
18,"Cc1nn(-c2cc(Nc3c(C)c(-c4ccc(F)cc4)nn3CC3CC3)ncn2)c(C)c1CC(C)(C)O [Example 302, 1-[1-(6-{[1-(cyclopropylmethyl)-3-(4-fluorophenyl)-4-methyl-1H-pyrazol-5-yl]amino}pyrimidin-4-yl)-3,5-dimethyl-1H-pyrazol-4-yl]-2-methylpropan-2-ol]",9
19,"CCc1c(Nc2cc(-n3nc(C)c(C(=O)N4CC(F)(C(F)(F)F)C4)c3C)ncn2)nn(C)c1-c1ccc(F)cc1 [Example 85, [1-(6-{[4-ethyl-5-(4-fluorophenyl)-1-methyl-1H-pyrazol-3-yl]amino}pyrimidin-4-yl)-3,5-dimethyl-1H-pyrazol-4-yl][3-fluoro-3-(trifluoromethyl)azetidin-1-yl]methanone]",130
20,"COc1ccc(-c2nn(CC3CC3)c(Nc3cc(-n4nc(C)c(C#N)c4C)ncn3)c2C)cc1 [Example 483, 1-(6-{[1-(cyclopropylmethyl)-3-(4-methoxyphenyl)-4-methyl-1H-pyrazol-5-yl]amino}pyrimidin-4-yl)-3,5-dimethyl-1H-pyrazole-4-carbonitrile]",1250
21,"Cc1c(-c2ccc(F)cc2)nn(CC2CC2)c1Nc1cc(-n2nc3c(c2C)C(C)(O)CC3)ncn1 (single isomer, unassigned) [Example 516, 2-(6-{[1-(cyclopropylmethyl)-3-(4-fluorophenyl)-4-methyl-1H-pyrazol-5-yl]amino}pyrimidin-4-yl)-3,4-dimethyl-2,4,5,6-tetrahydrocyclopenta[c]pyrazol-4-ol]",31
